Experimental data taken from patent US8389440B2, “Synergistic insecticide mixtures” (Bayer Cropscience AG, priority 2002, dated 2013).

Tests used:
[1] = system: diamond-back moth caterpillars (Plutella xylostella, resistant strain); details: found effect, dipped cabbage leaves
Protocol: Plutella Test, Resistant Strain
After the desired period, the destruction in % is determined. 100% means that all of the caterpillars have been destroyed; 0% means that no caterpillars have been destroyed.

[2] = system: Heliothis armigera caterpillars; experiment: Heliothis armigera test; assay type: in vivo; details: found effect, dipped soya bean shoots
[3] = system: army worm caterpillars (Spodoptera frugiperda); experiment: Spodoptera frugiperda test; assay type: in vivo; details: found effect, dipped cabbage leaves
Excerpt: Spodoptera Frugiperda Test

[4] = system: mustard beetle larvae (Phaedon cochleariae); experiment: Phaedon larvae test; assay type: in vivo; details: found effect, dipped cabbage leaves

Row | Compound | LC50 after 6 days [1] | LC50 after 6 days [2] | LC50 after 6 days [3] | LC95 after 3 days [4]
1 | emamectin benzoate | 0.174 ppm |  |  | 
2 | CC[C@H](C)[C@H]1O[C@]2(C=C[C@@H]1C)C[C@@H]1C[C@@H](C/C=C(\C)[C@@H](O[C@H]3C[C@H](OC)[C@@H](O[C@H]4C[C@H](OC)[C@@H](O)[C@H](C)O4)[C@H](C)O3)[C@@H](C)/C=C/C=C3\CO[C@@H]4[C@H](O)C(C)=C[C@@H](C(=O)O1)[C@]34O)O2 [Avermectin, abamectin] |  | 0.014 ppm | 5.553 ppm | 0.281 ppm
3 | CN/C(=N\[N+](=O)[O-])NCC1CCOC1 (centres unmarked) [Dinotefuran, dinotefuran] | 27.621 ppm | 13.165 ppm | 2.861 ppm | 42.07 ppm
